Measured values taken from patent US5534498A, “Trypsin inhibitors” (Corvas International, Inc., priority 1993, dated 1996).
pIC50: −log10 of the molar value. Residues, ends and D or L forms follow the SMILES beside them. *: point of attachment. Boc = CC(C)(C)OC(=O)*

Legend:
human kallekrein = target: T1, human kallekrein (Homo sapiens, UniProt P03952); assay: Kallikrein assay (S-2302 substrate); format: biochemical
T1 construct: 50 μL of 4 to 9 nM human kallekrein
Method: (§1) The specificity of the peptide aldehydes (8 through 12) was determined in vitro by measurement of their IC50 against other enzymes involved in hemostasis. A specific concentration of enzyme and its substrate were challenged with varying concentrations of inhibitor. […] Specific assay procedures used are presented below.
(§2) 96-well microtiter plates were prepared for use in these assays by incubating each well with 300 μL 1% bovine serum albumin (in deionized water) for 30 minutes at 37° C., then washing three times with deionized water.
(§3) The substrate was made up in deionized water prior to use.

human Factor XIa = target: T2, human Factor XIa (Homo sapiens, UniProt P03951); assay: Factor XIa assay (S-2366 substrate); format: biochemical
T2 construct: 50 μL of 5 nM human Factor XIa
T2 sequence (P03951 388-625 limits assumed): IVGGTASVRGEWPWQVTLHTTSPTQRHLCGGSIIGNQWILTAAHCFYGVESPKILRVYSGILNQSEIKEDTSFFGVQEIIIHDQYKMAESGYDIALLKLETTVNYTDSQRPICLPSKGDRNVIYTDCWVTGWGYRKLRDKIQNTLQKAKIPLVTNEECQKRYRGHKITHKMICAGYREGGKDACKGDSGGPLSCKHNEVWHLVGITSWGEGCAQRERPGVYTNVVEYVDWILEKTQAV
T2 sequence (P03951 19-387 partner limits assumed): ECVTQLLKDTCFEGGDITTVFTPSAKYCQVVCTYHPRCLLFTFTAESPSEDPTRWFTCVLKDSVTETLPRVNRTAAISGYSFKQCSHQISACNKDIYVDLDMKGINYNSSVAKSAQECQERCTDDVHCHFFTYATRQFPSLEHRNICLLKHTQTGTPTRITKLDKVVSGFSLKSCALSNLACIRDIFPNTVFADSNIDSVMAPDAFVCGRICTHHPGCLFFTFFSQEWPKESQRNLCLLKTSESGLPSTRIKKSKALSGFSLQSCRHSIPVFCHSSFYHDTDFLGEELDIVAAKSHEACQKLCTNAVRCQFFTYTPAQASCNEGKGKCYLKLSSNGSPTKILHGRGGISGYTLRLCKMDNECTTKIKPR
Method: as §1, §2, §3

human Factor Xa = target: T3, human Factor Xa (Homo sapiens, UniProt P00742); assay: Factor Xa assay (Pefachrome Xa substrate); format: biochemical
T3 construct: 50 μL 30 nM human Factor Xa
T3 sequence (P00742 235-488 limits assumed): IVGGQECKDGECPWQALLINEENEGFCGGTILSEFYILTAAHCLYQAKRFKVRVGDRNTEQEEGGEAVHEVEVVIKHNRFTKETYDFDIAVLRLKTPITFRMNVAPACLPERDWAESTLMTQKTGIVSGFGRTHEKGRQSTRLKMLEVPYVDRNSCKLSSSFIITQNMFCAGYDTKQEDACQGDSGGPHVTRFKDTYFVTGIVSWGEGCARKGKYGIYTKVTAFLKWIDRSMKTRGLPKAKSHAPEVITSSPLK
T3 sequence (P00742 41-179 partner limits assumed): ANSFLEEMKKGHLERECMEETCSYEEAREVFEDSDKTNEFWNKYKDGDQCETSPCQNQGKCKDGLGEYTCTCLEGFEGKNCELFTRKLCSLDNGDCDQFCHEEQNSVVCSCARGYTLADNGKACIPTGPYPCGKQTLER
Method: as §1, §2
Enzyme activity was determined using as substrate, Pefachrome Xa [N-methoxycarbonyl-D-cyclohexylalanyl-L-glycyl-L-arginine p-niroanilide acetate], purchased from Centerchem, Inc. The substrate was made up in deionized water prior to use.

human urokinase = target: T4, human urokinase (Homo sapiens, UniProt P00749); assay: Urokinase assay (S-2444 substrate); format: biochemical
T4 construct: 50 μL of 270 U/mL human urokinase
Method: The specificity of the peptide aldehydes (8 through 12) was determined in vitro by measurement of their IC50 against other enzymes involved in hemostasis. A specific concentration of enzyme and its substrate were challenged with varying concentrations of inhibitor. IC50 is that concentration of inhibitor giving 50% inhibition of substrate turnover, under the assay conditions. Specific assay procedures used are presented below.
as §2
Enzyme activity was determined using as substrate S-2444 [L-pyroglutamyl-L-glycyl-L-arginine-p-nitroanilide hydrochloride], purchased from Kabi Diagnostica. The substrate was made up in deionized water prior to use.
The assay was run by combining in appropriate wells 50 μL inhibitor in TBS or TBS alone and 50 μL of 270 U/mL human urokinase (or TBS as background control) and 50 μL TBS, incubating this mixture for 30 minutes at room temperature, adding 50 μL 1 mM S-2444, incubating for an additional 30 minutes at room temperature, then reading the absorbance of the wells at 405 nm on a microtiter plate reader set with background substraction at 650 nm.

[1] = system: caerulein-induced pancreatitis in balb/c mice; assay: Animal model for pancreatitis: caerulein-induced pancreatitis, serum amylase; format: in vivo; conditions: caerulein 3 × 100 μg/kg IP, inhibitor 50 mg/kg IP, blood 4 hours after last inhibitor injection, saline + caerulein 64.4 ± 14.4, control 10.4 ± 1.6
Method: The efficacy of the compounds of the present invention as a prophylactic treatment for pancreatitis is assessed in vivo using the chemically-induced animal model of Niederau et al., Gastroenterology 88:1192-1204 (1985).
Pancreatitis was induced in fasting male balb/c mice weighing between 18 to 20 g by giving them three IP injections of caerulein, with each dose at 100 μg/kg body weight. The injections of each were given at two hour intervals over a 6 hour period. The ability of N-Boc-L-Asp-Pro-Arg-al (compound 9) to inhibit the induced pancreatitis was tested by injection into caerulein-treated mice. The inhibitor was dissolved into TBS, then injected IP into the mice. The first injection was given 1/4 hour prior to the caerulein treatment, then one hour after each caerulein injection. Inhibitor dose tested was 50 mg/kg body weight.
A blood serum sample was drawn and tested for amylase concentration. The blood sample was obtained by periorbital bleeding into heparized tubes 4 hours after the last injection of inhibitor. After centrifuging to remove the blood cells, the serum was the diluted 1:10 in TBS and assayed with Sigma Diagnostics Amylase reagent. The kinetic change in absorbance was measured at 405 nm for 1 minute, then was convereted into U/ml amylase activity.

[2] = 30 min preincubation, room temperature, tested 0.025-25 μM, Inact. = no inhibition at highest concentration
[3] = [IC50 for Trypsin/IC50 for other enzyme]×100, lower = more trypsin selective

T1 sequence (P03952 391-638 limits assumed): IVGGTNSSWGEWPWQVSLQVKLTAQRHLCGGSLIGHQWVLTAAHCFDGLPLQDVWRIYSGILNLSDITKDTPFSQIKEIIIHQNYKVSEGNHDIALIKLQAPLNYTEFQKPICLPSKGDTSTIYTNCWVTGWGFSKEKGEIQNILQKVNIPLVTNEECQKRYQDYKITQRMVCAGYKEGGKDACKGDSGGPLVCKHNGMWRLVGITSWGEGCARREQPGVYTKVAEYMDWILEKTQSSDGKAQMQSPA
T1 sequence (P03952 20-390 partner limits assumed): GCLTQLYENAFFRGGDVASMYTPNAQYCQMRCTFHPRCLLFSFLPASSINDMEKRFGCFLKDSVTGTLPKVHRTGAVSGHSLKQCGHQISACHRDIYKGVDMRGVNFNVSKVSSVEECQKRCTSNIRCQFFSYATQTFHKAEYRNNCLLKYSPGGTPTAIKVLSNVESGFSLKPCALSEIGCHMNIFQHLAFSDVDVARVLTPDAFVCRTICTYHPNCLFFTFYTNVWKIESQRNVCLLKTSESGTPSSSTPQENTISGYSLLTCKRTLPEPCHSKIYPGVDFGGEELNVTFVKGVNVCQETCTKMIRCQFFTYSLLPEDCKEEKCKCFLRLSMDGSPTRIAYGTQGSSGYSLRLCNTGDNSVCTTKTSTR

CC(C)(C)OC(=O)N[C@@H](CC(=O)O)C(=O)N1CCC[C@H]1C(=O)N[C@H](C=O)CCCNC(=N)N [Compound 9, N-t-butyloxycarbonyl-L-Asp-L-Pro-L-argininal] (Boc-Asp-Pro-Arg-aldehyde)
pIC50 (human kallekrein; [2]): 4.77
Calculated % Selectivity Kallikrein (human kallekrein; [3]): 0.08%
pIC50 (human Factor XIa; [2]): 4.92
Calculated % Selectivity XIa (human Factor XIa; [3]): 0.12%
pIC50 (human Factor Xa; [2]): < 4.60
Calculated % Selectivity Xa (human Factor Xa; [3]): < 0.06%
pIC50 (human urokinase; [2]): 4.60
Calculated % Selectivity UK (human urokinase; [3]): 0.06%
Amylase Activity, Mean ± S.D [1]: 40.8 ± 5.2 U/ml
